Patent US20250099478A1, “PLASMA KALLIKREIN INHIBITORS” (Merck Sharp & Dohme LLC, priority 2022, published 2025)

Legend:
[1] = target: T1, Human plasma kallikrein (Homo sapiens, UniProt P03952); assay: Plasma Kallikrein Assay; assay type: biochemical; details: purified Human plasma kallikrein 0.5 nM, substrate Acetyl-K-P-R-AFC; read-out: PKal IC50
T1 construct: yields a heavy chain (371 amino acids) and a light chain (248 amino acids); purchased Enzyme Research Laboratories
Method in brief: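 Purified human plasma kallikrein (0.5 nM) hydrolysing fluorogenic Acetyl-K-P-R-AFC ([…]) in 50 mM HEPES pH 7.4, 150 mM NaCl, 5 mM CaCl2, 0.1% PEG 8000, at rt or 37 °C after enzyme–inhibitor equilibration. IC50 from four-parameter logistic fit; Ki via Cheng–Prusoff.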

[2] = target: T2, human factor XIa (Homo sapiens, UniProt P03951); assay: Factor XIa Assay; assay type: biochemical; details: human factor XIa 0.04 nM, substrate GPR-AFC, 25° C.
T2 construct: with human (0.04 nM) factor XIa
T2 sequence (P03951 388-625 limits assumed): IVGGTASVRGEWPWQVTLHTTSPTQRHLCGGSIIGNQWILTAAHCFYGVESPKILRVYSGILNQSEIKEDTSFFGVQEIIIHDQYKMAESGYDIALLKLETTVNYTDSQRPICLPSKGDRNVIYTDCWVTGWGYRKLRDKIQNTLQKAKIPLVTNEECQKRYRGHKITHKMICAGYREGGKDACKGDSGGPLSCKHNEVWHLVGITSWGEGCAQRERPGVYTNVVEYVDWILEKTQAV
T2 sequence (P03951 19-387 partner limits assumed): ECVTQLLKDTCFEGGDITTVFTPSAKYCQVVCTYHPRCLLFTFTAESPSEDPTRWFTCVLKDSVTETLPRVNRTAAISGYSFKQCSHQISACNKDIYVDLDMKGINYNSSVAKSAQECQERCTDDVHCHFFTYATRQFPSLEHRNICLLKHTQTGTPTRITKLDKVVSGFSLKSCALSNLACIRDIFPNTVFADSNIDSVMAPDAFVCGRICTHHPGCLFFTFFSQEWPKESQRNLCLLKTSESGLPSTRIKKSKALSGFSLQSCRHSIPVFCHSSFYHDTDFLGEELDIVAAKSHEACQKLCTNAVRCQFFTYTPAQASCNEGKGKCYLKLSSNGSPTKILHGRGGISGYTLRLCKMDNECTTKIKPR
Procedure: The effectiveness of a compound of the present invention as an inhibitor of Coagulation factor XIa can be determined using a relevant purified serine protease, and an appropriate synthetic substrate. The rate of hydrolysis of the chromogenic or fluorogenic substrate by the relevant serine protease was measured both in the absence and presence of compounds of the present invention. Assays were conducted at rt or at 37° C. […] A decrease in the rate of fluorescence change in the presence of inhibitor is indicative of enzyme inhibition. Such methods are known to one skilled in the art. The results of this assay are expressed as the half-maximal inhibitory concentrations (IC50), or the inhibitory constant, Ki.
Compounds were pre-incubated for 30 min at 25° C. with human (0.04 nM) factor XIa in 50 mM HEPES buffer with 150 mM sodium chloride, 5 mM calcium chloride, 0.1% PEG 8000, pH 7.4. factor XIa enzymatic activity was determined by addition of the substrate glycine-proline-arginine-7-amido-4-trifluoromethylcoumarin (GPR-AFC) and measurement of the fluorescence at 400/505 nm after a 60 min incubation at 25° C. The % inhibition for each data point was calculated from the data and analyzed using the log (inhibitor) vs. response four parameters equation to determine the half-maximal inhibitory concentrations (IC50). The IC50 were converted to equilibrium inhibitory constants (Ki) using the Cheng-Prusoff equation.

T1 sequence (P03952 391-638 limits assumed): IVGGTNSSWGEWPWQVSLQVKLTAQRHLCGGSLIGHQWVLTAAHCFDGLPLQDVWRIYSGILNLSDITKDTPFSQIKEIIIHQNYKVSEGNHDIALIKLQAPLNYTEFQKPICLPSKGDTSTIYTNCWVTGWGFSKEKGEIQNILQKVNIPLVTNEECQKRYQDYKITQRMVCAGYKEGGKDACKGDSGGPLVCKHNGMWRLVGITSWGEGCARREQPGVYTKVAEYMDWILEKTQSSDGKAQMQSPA
T1 sequence (P03952 20-390 partner limits assumed): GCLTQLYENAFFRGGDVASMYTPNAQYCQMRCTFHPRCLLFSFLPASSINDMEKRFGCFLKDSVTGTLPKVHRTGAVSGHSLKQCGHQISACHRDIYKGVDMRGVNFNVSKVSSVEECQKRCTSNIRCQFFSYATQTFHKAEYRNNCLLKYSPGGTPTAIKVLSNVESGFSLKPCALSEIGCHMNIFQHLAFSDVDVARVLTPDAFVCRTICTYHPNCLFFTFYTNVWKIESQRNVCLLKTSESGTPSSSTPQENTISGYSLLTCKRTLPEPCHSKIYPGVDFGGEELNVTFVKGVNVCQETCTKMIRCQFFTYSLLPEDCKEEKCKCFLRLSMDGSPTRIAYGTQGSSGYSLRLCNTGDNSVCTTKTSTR

Row | Compound | IC50 [1] | IC50 [2]
1 | O=C1Nc2ccc(Cl)c(F)c2[C@@]2(CCCN(C(=O)c3nnc(C(Cc4ccccc4)c4ccccc4)[nH]3)C2)O1 (single isomer, unassigned) [Example 104] | 16.6 nM | 2990 nM
2 | O=C1Nc2ccc(Cl)c(F)c2[C@@]2(CCCN(C(=O)c3nnc(C4(c5ccc(F)cc5)CCC4)[nH]3)C2)O1 [Example 88, (R)-6-Chloro-5-fluoro-1′-(5-(1-(4-fluorophenyl)cyclobutyl)-4H-1,2,4-triazole-3-carbonyl)spiro[benzo[d][1,3]oxazine-4,3′-piperidin]-2(1H)-one] | 13.7 nM | 4440 nM
3 | CCC(c1cccc(S(C)(=O)=O)c1)n1cc(C(=O)N2CCC[C@@]3(C2)OC(=O)Nc2ccc(Cl)c(F)c23)cn1 (single isomer, unassigned) [Example 31] | 9 nM | 2460 nM
4 | CCC(c1ccc(F)cc1)c1c[nH]c(C(=O)N2CC[C@@]3(C2)OC(=O)Nc2ccc(Cl)c(F)c23)n1 (single isomer, unassigned) [Example 66, (4R)-6-Chloro-5-fluoro-1′-(4-((S or R)-1-(4-fluorophenyl)propyl)-1H-imidazole-2-carbonyl)spiro[benzo[d][1,3]oxazine-4,3′-pyrrolidin]-2(1H)-one] | 32.5 nM | 1360 nM
5 | O=C1Nc2ccc(Cl)c(F)c2[C@@]2(CCCN(C(=O)c3nnc(C(CC(F)(F)F)c4ccccc4)[nH]3)C2)O1 (single isomer, unassigned) [Example 99] | 9.7 nM | 1370 nM
6 | CCC(c1ccc(F)cc1)c1nnc(C(=O)N2CC(C)(C)C[C@@]3(C2)OC(=O)Nc2ccc(Cl)c(F)c23)[nH]1 (single isomer, unassigned) [Example 102] | 3.6 nM | 1130 nM
7 | Cc1cc(Cc2nnc(C(=O)N3CCC[C@@]4(C3)OC(=O)Nc3ccc(Cl)c(F)c34)[nH]2)cc2[nH]ncc12 [Example 124, (R)-6-Chloro-5-fluoro-1′-(5-((4-methyl-1H-indazol-6-yl)methyl)-4H-1,2,4-triazole-3-carbonyl)spiro[benzo[d][1,3]oxazine-4,3′-piperidin]-2(1H)-one] | 13.5 nM | 7760 nM
8 | CCC(c1ccc(F)cc1)c1nnc(C(=O)N2CC(C)(C)C[C@@]3(C2)OC(=O)Nc2ccc(Cl)c(F)c23)[nH]1 (single isomer, unassigned) [Example 103] | 7 nM | 1950 nM
9 | O=C1Nc2ccc(Cl)c(F)c2[C@@]2(CCCN(C(=O)c3cnn(C(CC4CC4)c4ccccc4)c3)C2)O1 (single isomer, unassigned) [Example 29] | 6.9 nM | 1570 nM
10 | CCC(c1ccc2c(c1)COC2)c1nnc(C(=O)N2CCC[C@@]3(C2)OC(=O)Nc2ccc(Cl)c(F)c23)[nH]1 (single isomer, unassigned) [Example 111] | 3.8 nM | 2820 nM
11 | CCC(c1ccc(F)cc1)c1c[nH]c(C(=O)N2CCC[C@@]3(C2)OC(=O)Nc2ccc(Cl)c(F)c23)n1 (single isomer, unassigned) [Example 72, (R)-6-Chloro-5-fluoro-1′-(4-((S or R)-1-(4-fluorophenyl)propyl)-1H-imidazole-2-carbonyl)spiro[benzo[d][1,3]oxazine-4,3′-piperidin]-2(1H)-one] | 9.3 nM | 1430 nM
12 | CCC(c1ccc2cnccc2c1)n1cc(C(=O)N2CCC[C@@]3(C2)OC(=O)Nc2ccc(Cl)c(F)c23)cn1 (single isomer, unassigned) [Example 35] | 2.6 nM | 1020 nM
13 | O=C1Nc2ccc(Cl)c(F)c2[C@@]2(CCCN(C(=O)c3cnn([C@@H](CC4CC4)c4ccccc4)c3)C2)O1 (single isomer, unassigned) [Example 1] | 6.9 nM | 1570 nM
14 | CCC(c1ccc2c(c1)OCO2)n1cc(C(=O)N2CCC[C@@]3(C2)OC(=O)Nc2ccc(Cl)c(F)c23)cn1 (single isomer, unassigned) [Example 33] | 4.2 nM | 4760 nM
15 | CC[C@@H](c1ccc(F)cc1)c1ncc(C(=O)N2CCC[C@@]3(C2)OC(=O)Nc2ccc(Cl)c(F)c23)[nH]1 (single isomer, unassigned) [Example 79] | 1.7 nM | 194 nM
16 | CCC(c1ccc2cnccc2c1)n1cc(C(=O)N2CCC[C@@]3(C2)OC(=O)Nc2ccc(Cl)c(F)c23)cn1 (single isomer, unassigned) [Example 36] | 2.8 nM | 2490 nM
17 | CC1(C)CN(C(=O)c2nnc(C(C)(C)c3ccccc3)[nH]2)C[C@]2(C1)OC(=O)Nc1ccc(Cl)c(F)c12 [Example 95, (R)-6-Chloro-5-fluoro-5′,5′-dimethyl-1′-(5-(2-phenylpropan-2-yl)-4H-1,2,4-triazole-3-carbonyl)spiro[benzo[d][1,3]oxazine-4,3′-piperidin]-2(1H)-one] | 21.4 nM | 3010 nM
18 | CCC(c1cc(C)c2nc[nH]c2c1)n1cc(C(=O)N2CCC[C@@]3(C2)OC(=O)Nc2ccc(Cl)c(F)c23)cn1 (single isomer, unassigned) [Example 46, (4R)-6-Chloro-5-fluoro-1′-(1-((S or R)-1-(4-methyl-1H-benzo[d]imidazol-6-yl)propyl)-1H-pyrazole-4-carbonyl)spiro[benzo[d][1,3]oxazine-4,3′-piperidin]-2(1H)-one] | 1.2 nM | 846 nM
19 | CCC(c1c(C)noc1C)n1cc(C(=O)N2CCC[C@@]3(C2)OC(=O)Nc2ccc(Cl)c(F)c23)cn1 (single isomer, unassigned) [Example 44] | 5.9 nM | 2420 nM
20 | CC[C@H](c1ccc(F)cc1)c1ncc(C(=O)N2CCC[C@@]3(C2)OC(=O)Nc2ccc(Cl)c(F)c23)[nH]1 (single isomer, unassigned) [Example 80] | 1.9 nM | 179 nM
21 | CCC(c1ccc(F)cc1)n1cc(C(=O)N2CCC[C@@]3(C2)OC(=O)Nc2ccc(Cl)c(F)c23)cn1 (single isomer, unassigned) [Example 26] | 6.9 nM | 7640 nM
22 | CO[C@H](C)[C@H](c1ccccc1)n1cc(C(=O)N2CCC[C@@]3(C2)OC(=O)Nc2ccc(Cl)c(F)c23)cn1 [Example 15, (R)-6-Chloro-5-fluoro-1′-(1-((1S,2R)-2-methoxy-1-phenylpropyl)-1H-pyrazole-4-carbonyl)spiro[benzo[d][1,3]oxazine-4,3′-piperidin]-2(1H)-one] | 38.1 nM | 2710 nM
23 | O=C1Nc2ccc(Cl)c(F)c2[C@@]2(CCCN(C(=O)c3cnc(Cc4ccc(F)cc4)[nH]3)C2)O1 [Example 76, (R)-6-Chloro-5-fluoro-1′-(2-(4-fluorobenzyl)-1H-imidazole-5-carbonyl)spiro[benzo[d][1,3]oxazine-4,3′-piperidin]-2(1H)-one] | 16.1 nM | 4580 nM
24 | O=C1Nc2ccc(Cl)c(F)c2[C@@]2(CCCN(C(=O)c3nnc(C(CC(F)(F)F)c4cccc(Cl)c4)[nH]3)C2)O1 (single isomer, unassigned) [Example 100] | 2.2 nM | 1450 nM
25 | CCC(c1ccnc(C(F)(F)F)c1)c1c[nH]c(C(=O)N2CCC[C@@]3(C2)OC(=O)Nc2ccc(Cl)c(F)c23)n1 (single isomer, unassigned) [Example 73, (R)-6-Chloro-5-fluoro-1′-(4-((R or S)-1-(2-(trifluoromethyl)pyridin-4-yl)propyl)-1H-imidazole-2-carbonyl)spiro[benzo[d][1,3]oxazine-4,3′-piperidin]-2(1H)-one] | 8.2 nM | 2050 nM
26 | O=C1Nc2ccc(Cl)c(F)c2[C@@]2(CCCN(C(=O)c3nnc(C(CC(F)(F)F)c4cccc(Cl)c4)[nH]3)C2)O1 (single isomer, unassigned) [Example 101] | 10.4 nM | 4010 nM
27 | CCC(c1ccc2[nH]ncc2c1)n1cc(C(=O)N2CCC[C@@]3(C2)OC(=O)Nc2ccc(Cl)c(F)c23)cn1 (single isomer, unassigned) [Example 39] | 4 nM | 1350 nM
28 | CCCCC(O)(c1ccc(F)cc1)c1ncc(C(=O)N2CCC[C@@]3(C2)OC(=O)Nc2ccc(Cl)c(F)c23)[nH]1 (stereo partly drawn) [Example 81, (3′R)-6-Chloro-5-fluoro-1′-(2-(1-(4-fluorophenyl)-1-hydroxypentyl)-1H-imidazole-5-carbonyl)spiro[benzo[d][1.3]oxazine-4,3′-piperidin]-2(1H)-one] | 8.7 nM | 2300 nM
29 | CCC(c1ccc(F)cc1)c1c[nH]c(C(=O)N2CCC[C@@]3(C2)OC(=O)Nc2ccc(Cl)c(F)c23)n1 (single isomer, unassigned) [Example 71, (R)-6-Chloro-5-fluoro-1′-(4-((R or S)-1-(4-fluorophenyl)propyl)-1H-imidazole-2-carbonyl)spiro[benzo[d][1,3]oxazine-4,3′-piperidin]-2(1H)-one] | 5.5 nM | 995 nM
30 | O=C1Nc2ccc(Cl)c(F)c2[C@@]2(CCCN(C(=O)c3nnc(C(c4ccccc4)C4CC4)[nH]3)C2)O1 (single isomer, unassigned) [Example 106] | 1.6 nM | 795 nM
